# Experimental data as given in patent US20180256673A1, “METHODS FOR TREATING FUNGAL INFECTIONS” (priority 2015, published 2018).
# Where two headings read alike, the source gives them in different places.
# Tests used:
# Candida krusei = test: Broth microdilution of invasive fungal isolates (CLSI M27-A3/M38-A2); assay type: cell-based; settings: 16 isolates
# C. albicans NRRL Y-477 = test: microbe, parasite or virus in culture; assay type: cell-based, Candida albicans; settings: for MIC: Candida albicans
# Candida albicans = test: Broth microdilution of invasive fungal isolates (CLSI M27-A3/M38-A2); assay type: cell-based; settings: 251 isolates
# Candida dubliniensis = test: as above; assay type: cell-based; settings: 11 isolates
# [1] = test system: C. albicans vaginal isolates; test: Susceptibility testing of VVC clinical isolates at pH 7 and 4 (CLSI M27-A3); assay type: cell-based, Candida albicans; settings: Candida albicans; for MIC: read-out: MIC; for MIC90: 60 isolates, read-out: MIC90
smiles,measurement,setting,value
"CC[C@H](C)C[C@H](C)CCCCCCCCC(=O)N[C@H]1C[C@@H](O)[C@@H](NCCN)NC(=O)[C@@H]2[C@@H](O)CCN2C(=O)[C@H]([C@H](O)CCN)NC(=O)[C@H]([C@H](O)[C@@H](O)c2ccc(O)cc2)NC(=O)[C@@H]2C[C@@H](O)CN2C(=O)[C@H]([C@@H](C)O)NC1=O [CAS, caspofungin]",Number of isolates inhibited at MIC 0.12 μg/mL,Candida krusei,10
same,Number of isolates inhibited at MIC 0.25 μg/mL,Candida krusei,2
same,MIC50,"Candida krusei; Pichia kudriavzevii, read-out: MIC50",0.12 µg/mL
same,MIC90,"Candida krusei; Pichia kudriavzevii, read-out: MIC90",0.25 µg/mL
same,MIC,"C. albicans NRRL Y-477; NRRLY477, 48 h, NRRL Y-477 P20-1, selecting drug ANID, Fks1 HS1 S645Y, 48 h read",2 µg/mL
same,MIC,"C. albicans NRRL Y-477; NRRLY477, 48 h, NRRL Y-477 P20-1, selecting drug CMP1, 48 h read",0.5 µg/mL
same,MIC,"C. albicans NRRL Y-477; NRRLY477, NRRL Y-477 P20-1, selecting drug CAS",0.25 µg/mL
same,MIC,"C. albicans NRRL Y-477; NRRLY477, read-out: MIC P20, NRRL Y-477, total population after 20 passages with the selecting drug, MIC of selecting drug",0.25 µg/mL
same,MIC fold-shift,"C. albicans NRRL Y-477; NRRL Y-477, WT to P20",1
same,Cumulative % of isolates inhibited at MIC 0.015 μg/mL,Candida albicans,(31.9) %
same,Cumulative % of isolates inhibited at MIC 0.03 μg/mL,Candida albicans,(85.7) %
same,Cumulative % of isolates inhibited at MIC 0.06 μg/mL,Candida albicans,(99.2) %
same,Cumulative % of isolates inhibited at MIC 0.12 μg/mL,Candida albicans,(100.0) %
same,Cumulative % of isolates inhibited at MIC ≤0.008 μg/mL,Candida albicans,1.6%
same,Number of isolates inhibited at MIC 0.015 μg/mL,Candida albicans,76
same,Number of isolates inhibited at MIC 0.03 μg/mL,Candida albicans,135
same,Number of isolates inhibited at MIC 0.06 μg/mL,Candida albicans,34
same,Number of isolates inhibited at MIC 0.12 μg/mL,Candida albicans,2
same,Number of isolates inhibited at MIC ≤0.008 μg/mL,Candida albicans,4
same,MIC50,"Candida albicans; Candida albicans, read-out: MIC50",0.03 µg/mL
same,MIC90,"Candida albicans; Candida albicans, read-out: MIC90",0.06 µg/mL
same,Cumulative % of isolates inhibited at MIC 0.015 μg/mL,Candida dubliniensis,(9.1) %
same,Cumulative % of isolates inhibited at MIC 0.03 μg/mL,Candida dubliniensis,(54.5) %
same,Cumulative % of isolates inhibited at MIC 0.06 μg/mL,Candida dubliniensis,(100.0) %
same,Number of isolates inhibited at MIC 0.015 μg/mL,Candida dubliniensis,1
same,Number of isolates inhibited at MIC 0.03 μg/mL,Candida dubliniensis,5
same,Number of isolates inhibited at MIC 0.06 μg/mL,Candida dubliniensis,5
same,MIC50,"Candida dubliniensis; Candida dubliniensis, read-out: MIC50",0.03 µg/mL
same,MIC90,"Candida dubliniensis; Candida dubliniensis, read-out: MIC90",0.06 µg/mL
same,MIC,"[1]; 48 h, pH 4, fluconazole-resistant isolate 1, pH 4, 48 h",0.25 µg/mL
same,MIC,"[1]; 48 h, pH 4, fluconazole-resistant isolate 2, pH 4, 48 h",1 µg/mL
same,MIC,"[1]; 48 h, pH 4, fluconazole-resistant isolate 3, pH 4, 48 h",0.5 µg/mL
same,MIC,"[1]; 48 h, pH 4, fluconazole-resistant isolate 4, pH 4, 48 h",1 µg/mL
same,MIC,"[1]; 48 h, pH 4, fluconazole-resistant isolate 5, pH 4, 48 h",4 µg/mL
same,MIC,"[1]; 48 h, pH 4, fluconazole-resistant isolate 6, pH 4, 48 h",1 µg/mL
same,MIC,"[1]; 48 h, pH 4, fluconazole-resistant isolate 7, pH 4, 48 h",1 µg/mL
same,MIC,"[1]; 48 h, pH 4, fluconazole-resistant isolate 8, pH 4, 48 h",0.5 µg/mL
same,MIC,"[1]; 48 h, pH 4, fluconazole-resistant isolate 9, pH 4, 48 h",1 µg/mL
same,MIC,"[1]; 48 h, pH 4, fluconazole-resistant isolate 10, pH 4, 48 h",1 µg/mL
same,MIC,"[1]; 48 h, pH 7, fluconazole-resistant isolate 1, pH 7, 48 h",0.5 µg/mL
same,MIC,"[1]; 48 h, pH 7, fluconazole-resistant isolate 2, pH 7, 48 h",0.5 µg/mL
same,MIC,"[1]; 48 h, pH 7, fluconazole-resistant isolate 3, pH 7, 48 h",0.5 µg/mL
same,MIC,"[1]; 48 h, pH 7, fluconazole-resistant isolate 4, pH 7, 48 h",0.5 µg/mL
same,MIC,"[1]; 48 h, pH 7, fluconazole-resistant isolate 5, pH 7, 48 h",2 µg/mL
same,MIC,"[1]; 48 h, pH 7, fluconazole-resistant isolate 6, pH 7, 48 h",1 µg/mL
same,MIC,"[1]; 48 h, pH 7, fluconazole-resistant isolate 7, pH 7, 48 h",0.5 µg/mL
same,MIC,"[1]; 48 h, pH 7, fluconazole-resistant isolate 8, pH 7, 48 h",0.5 µg/mL
same,MIC,"[1]; 48 h, pH 7, fluconazole-resistant isolate 9, pH 7, 48 h",2 µg/mL
same,MIC,"[1]; 48 h, pH 7, fluconazole-resistant isolate 10, pH 7, 48 h",0.5 µg/mL
same,MIC90,"[1]; pH 4, 24 h",0.5 µg/mL
same,MIC90,"[1]; pH 4, 48 h",1 µg/mL
same,MIC90,"[1]; pH 7, 24 h",0.5 µg/mL
same,MIC90,"[1]; pH 7, 48 h",1 µg/mL
